Data from ChEMBL document CHEMBL4376806, “Antibiotic Adjuvants: Make Antibiotics Great Again!” (2019).
Converted amounts (≈) assume the structure as drawn.

Assays:
[1] = target: T1, MexAB/OprM (Pseudomonas aeruginosa (strain ATCC 15692 / DSM 22644 / CIP 104116 / JCM14847 / LMG 12228 / 1C / PRS 101 / PAO1)) (UniProt P52477+P52002+Q51487); test: Inhibition of MexAB/OprM in Pseudomonas aeruginosa PAO1 assessed as potentiation of chloramphenicol-induced antibacterial activity by measuring chloramphenicol MIC at 128 ug/ml incubated for 18 hrs (reference value: 64 ug/ml)
[2] = target: T1, MexAB/OprM (Pseudomonas aeruginosa (strain ATCC 15692 / DSM 22644 / CIP 104116 / JCM14847 / LMG 12228 / 1C / PRS 101 / PAO1)); test: Inhibition of MexAB/OprM in Pseudomonas aeruginosa PAO1 assessed as potentiation of novobiocin-induced antibacterial activity by measuring novobiocin MIC at 128 ug/ml incubated for 18 hrs (reference value: 512 ug/ml)
[3] = target: T1, MexAB/OprM (Pseudomonas aeruginosa (strain ATCC 15692 / DSM 22644 / CIP 104116 / JCM14847 / LMG 12228 / 1C / PRS 101 / PAO1)); test: Inhibition of MexAB/OprM in Pseudomonas aeruginosa PAO1 assessed as potentiation of ciprofloxacin-induced antibacterial activity by measuring ciprofloxacin MIC at 128 ug/ml incubated for 18 hrs (reference value: 1 ug/ml)
[4] = target: T1, MexAB/OprM (Pseudomonas aeruginosa (strain ATCC 15692 / DSM 22644 / CIP 104116 / JCM14847 / LMG 12228 / 1C / PRS 101 / PAO1)); test: Inhibition of MexAB/OprM in Pseudomonas aeruginosa PAO1 assessed as potentiation of tetracycline-induced antibacterial activity by measuring tetracycline MIC at 128 ug/ml incubated for 18 hrs (reference value: 8 ug/ml)
[5] = target: T1, MexAB/OprM (Pseudomonas aeruginosa (strain ATCC 15692 / DSM 22644 / CIP 104116 / JCM14847 / LMG 12228 / 1C / PRS 101 / PAO1)); test: Inhibition of MexAB/OprM in Pseudomonas aeruginosa PAO1 assessed as potentiation of trimethoprim-induced antibacterial activity by measuring trimethoprim MIC at 128 ug/ml incubated for 18 hrs (reference value: 128 ug/ml)
[6] = target: T1, MexAB/OprM (Pseudomonas aeruginosa (strain ATCC 15692 / DSM 22644 / CIP 104116 / JCM14847 / LMG 12228 / 1C / PRS 101 / PAO1)); test: Inhibition of MexAB/OprM in Pseudomonas aeruginosa PAO1 assessed as potentiation of carbenicillin-induced antibacterial activity by measuring carbenicillin MIC at 128 ug/ml incubated for 18 hrs (reference value: 64 ug/ml)
Klebsiella pneumoniae [7] = test: Potentiation of meropenem-induced antibacterial activity against Klebsiella pneumoniae N11-2218 harboring NDM1 infected in CD1 mouse assessed as mouse survival at 30 mg/kg, sc administered 30 mins post infection and measured 5 days post infection (reference value: 0%); assay type: functional; settings: N11-2218, sc
[8] = target: Metallo-beta-lactamase type 2 (Klebsiella pneumoniae) (UniProt C7C422); test: Inhibition of beta-lactamase NDM-1 in Klebsiella pneumoniae N11-2218 assessed as potentiation of meropenem-induced antibacterial activity by measuring meropenem MIC at 8 ug/ml (Rvb =32 ug/ml)
Klebsiella pneumoniae [9] = test: Inhibition of beta-lactamase TEM-4 in Klebsiella pneumoniae 25637 assessed as potentiation of ceftazidime-induced antibacterial activity by measuring ceftazidime MIC (reference value: 32 ug/ml)
Escherichia coli [10] = test: Inhibition of beta-lactamase TEM-8 in Escherichia coli CF3 assessed as potentiation of ceftazidime-induced antibacterial activity by measuring ceftazidime MIC (reference value: 64 ug/ml)
Klebsiella pneumoniae [11] = test: Inhibition of beta-lactamase TEM-2 in Klebsiella pneumoniae IP1 assessed as potentiation of ceftazidime-induced antibacterial activity by measuring ceftazidime MIC (reference value: 16 ug/ml)
Escherichia coli [12] = test: Inhibition of Beta-lactamase PER-1 in Escherichia coli KB10 assessed as potentiation of ceftazidime-induced antibacterial activity by measuring ceftazidime MIC (Rvb >64 ug/ml)
Klebsiella pneumoniae [13] = test: Inhibition of Beta-lactamase SHV-2 in Klebsiella pneumoniae IP86 assessed as potentiation of ceftazidime-induced antibacterial activity by measuring ceftazidime MIC (reference value: 64 ug/ml)
[14] = target: Beta-lactamase TEM (Escherichia coli) (UniProt P62593); test: Inhibition of beta-lactamase TEM-1 in Escherichia coli GN5482 assessed as potentiation of ceftazidime-induced antibacterial activity by measuring ceftazidime MIC (reference value: 4 ug/ml)
Escherichia coli [15] = test: Potentiation of erythromycin-induced antibacterial activity against Escherichia coli W3110 assessed as erythromycin MIC at 64 ug/ml after 20 hrs by liquid microdilution method (reference value: 64 ug/ml); assay type: functional; settings: K-12 substr. W3110, 20 h
Escherichia coli [16] = test: Potentiation of novobiocin-induced antibacterial activity against Escherichia coli W3110 assessed as novobiocin MIC at 64 ug/ml after 20 hrs by liquid microdilution method (reference value: 128 ug/ml); assay type: functional; settings: K-12 substr. W3110, 20 h
Haemophilus influenzae = settings: 54A042
[17] = target: Beta-lactamase (Staphylococcus aureus) (UniProt P00807); settings: 01A400
Description: Inhibition of penicillinase in Staphylococcus aureus 01A400 assessed as potentiation of benzylpenicillin-induced antibacterial activity by measuring benzylpenicillin MIC at 3.12 ug/ml (Rvb = 200 ug/ml)

Bacteroides fragilis = settings: 78C004
Description: Inhibition of beta-lactamase in Bacteroides fragilis 78C004 assessed as potentiation of benzylpenicillin-induced antibacterial activity by measuring benzylpenicillin MIC at 3.12 ug/ml (Rvb = 200 ug/ml)

[18] = system: Staphylococcus epidermidis; settings: 01B116
Description: Inhibition of beta-lactamase in Staphylococcus epidermidis 01B116 assessed as potentiation of benzylpenicillin-induced antibacterial activity by measuring benzylpenicillin MIC at 3.12 ug/ml (Rvb >25 ug/ml)

Beta-lactamase (Staphylococcus aureus), sequence (P00807 whole entry): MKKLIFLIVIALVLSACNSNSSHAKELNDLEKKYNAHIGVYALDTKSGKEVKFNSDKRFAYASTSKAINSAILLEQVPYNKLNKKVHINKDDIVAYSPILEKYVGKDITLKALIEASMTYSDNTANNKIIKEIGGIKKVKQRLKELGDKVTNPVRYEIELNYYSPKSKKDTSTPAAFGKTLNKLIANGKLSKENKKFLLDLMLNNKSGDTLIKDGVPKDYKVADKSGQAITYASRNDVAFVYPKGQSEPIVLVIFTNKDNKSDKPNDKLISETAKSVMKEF
Metallo-beta-lactamase type 2 (Klebsiella pneumoniae), sequence (C7C422 whole entry): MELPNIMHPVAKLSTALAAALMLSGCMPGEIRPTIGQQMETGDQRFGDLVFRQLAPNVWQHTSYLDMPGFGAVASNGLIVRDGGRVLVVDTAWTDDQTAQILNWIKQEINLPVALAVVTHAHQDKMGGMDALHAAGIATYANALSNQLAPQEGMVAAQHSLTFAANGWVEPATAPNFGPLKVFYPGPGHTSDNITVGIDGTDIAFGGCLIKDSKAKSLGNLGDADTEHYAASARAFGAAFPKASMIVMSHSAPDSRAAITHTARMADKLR
Beta-lactamase TEM (Escherichia coli), sequence (P62593 whole entry): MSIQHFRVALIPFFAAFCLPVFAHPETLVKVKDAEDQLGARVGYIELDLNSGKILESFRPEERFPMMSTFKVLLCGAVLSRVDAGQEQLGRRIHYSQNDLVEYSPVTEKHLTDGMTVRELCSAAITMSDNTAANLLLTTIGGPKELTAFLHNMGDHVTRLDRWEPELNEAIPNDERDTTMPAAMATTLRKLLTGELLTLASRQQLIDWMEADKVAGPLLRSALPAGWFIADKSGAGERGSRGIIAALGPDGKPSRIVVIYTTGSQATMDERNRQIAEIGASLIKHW

O=C(O[C@@H]1Cc2c(O)cc(O)cc2O[C@@H]1c1cc(O)c(O)c(O)c1)c1cc(O)c(O)c(O)c1
MIC [1]: 16 µg/mL
MIC [2]: 128 µg/mL
MIC [3]: 0.5 µg/mL
MIC [4]: 2 µg/mL
MIC [5]: 32 µg/mL
MIC [6]: 64 µg/mL

N[C@H](CN[C@H](CN[C@@H](CC(=O)O)C(=O)O)C(=O)O)C(=O)O
survival at 30 mg/kg (Klebsiella pneumoniae [7]): 95%
MIC [8]: 1 µg/mL

NC(=O)[C@@H]1CC[C@@H]2CN1C(=O)N2OS(=O)(=O)O
MIC (Klebsiella pneumoniae [9]): 0.5 µg/mL
MIC (Escherichia coli [10]): 2 µg/mL
MIC (Klebsiella pneumoniae [11]): 0.5 µg/mL
MIC (Escherichia coli [12]): 4 µg/mL
MIC (Klebsiella pneumoniae [13]): 1 µg/mL
MIC [14]: 0.5 µg/mL

Cl.Cl.Cl.Cl.NCCCNCCCCNCCCNC(=O)Cc1cccc2ccccc12
MIC (Escherichia coli [15]): 4 µg/mL
MIC (Escherichia coli [16]): 1 µg/mL

CC1(C)[C@H](C(=O)O)N2C(=O)C[C@H]2S1(=O)=O
MIC (Haemophilus influenzae): 1.56 µg/mL (≈ 6.69 µM)
MIC [17]: 1.56 µg/mL (≈ 6.69 µM)
MIC (Bacteroides fragilis): 3.12 µg/mL (≈ 13.4 µM)
MIC [18]: 1.56 µg/mL (≈ 6.69 µM)
